ChEMBL document CHEMBL4507319 (2021)

How the values were obtained:
[1] = target: GABA-A receptor; anion channel (Rattus norvegicus) (UniProt O09028+P15431+P18506+P18508+P19969+P20236+P23574+P23576+P28471+P28473+P30191+P62813+P63079+P63138+Q91ZM7+Q9ES14); conditions: Compound concentration 10.0 uM
[2] = target: T1, Serine/threonine-protein kinase 4 (Homo sapiens) (UniProt Q13043); experiment: MST1(h) Eurofins kinase panel; conditions: Compound concentration 1.0 uM
T1 sequence (whole entry): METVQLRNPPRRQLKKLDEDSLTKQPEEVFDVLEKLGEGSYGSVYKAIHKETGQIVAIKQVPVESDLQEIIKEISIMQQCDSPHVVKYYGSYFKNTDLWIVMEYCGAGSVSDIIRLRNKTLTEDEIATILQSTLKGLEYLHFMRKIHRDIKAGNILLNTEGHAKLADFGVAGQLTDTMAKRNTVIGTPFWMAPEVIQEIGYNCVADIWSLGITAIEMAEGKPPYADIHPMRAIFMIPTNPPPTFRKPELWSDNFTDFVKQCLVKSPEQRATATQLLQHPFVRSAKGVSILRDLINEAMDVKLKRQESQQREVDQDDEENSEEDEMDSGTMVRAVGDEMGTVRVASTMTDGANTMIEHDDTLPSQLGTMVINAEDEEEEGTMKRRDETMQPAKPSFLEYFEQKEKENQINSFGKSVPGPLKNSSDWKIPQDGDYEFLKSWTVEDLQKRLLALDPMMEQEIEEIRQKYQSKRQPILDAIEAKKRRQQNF

JJN-3 = experiment: JJN3 cell line Proliferation assay; format: functional, Homo sapiens; conditions: time 3 day
[3] = target: T2, Serine/threonine-protein kinase BRSK2 (Homo sapiens) (UniProt Q8IWQ3); experiment: BrSK2(h) Eurofins kinase panel; conditions: Compound concentration 1.0 uM
T2 sequence (whole entry): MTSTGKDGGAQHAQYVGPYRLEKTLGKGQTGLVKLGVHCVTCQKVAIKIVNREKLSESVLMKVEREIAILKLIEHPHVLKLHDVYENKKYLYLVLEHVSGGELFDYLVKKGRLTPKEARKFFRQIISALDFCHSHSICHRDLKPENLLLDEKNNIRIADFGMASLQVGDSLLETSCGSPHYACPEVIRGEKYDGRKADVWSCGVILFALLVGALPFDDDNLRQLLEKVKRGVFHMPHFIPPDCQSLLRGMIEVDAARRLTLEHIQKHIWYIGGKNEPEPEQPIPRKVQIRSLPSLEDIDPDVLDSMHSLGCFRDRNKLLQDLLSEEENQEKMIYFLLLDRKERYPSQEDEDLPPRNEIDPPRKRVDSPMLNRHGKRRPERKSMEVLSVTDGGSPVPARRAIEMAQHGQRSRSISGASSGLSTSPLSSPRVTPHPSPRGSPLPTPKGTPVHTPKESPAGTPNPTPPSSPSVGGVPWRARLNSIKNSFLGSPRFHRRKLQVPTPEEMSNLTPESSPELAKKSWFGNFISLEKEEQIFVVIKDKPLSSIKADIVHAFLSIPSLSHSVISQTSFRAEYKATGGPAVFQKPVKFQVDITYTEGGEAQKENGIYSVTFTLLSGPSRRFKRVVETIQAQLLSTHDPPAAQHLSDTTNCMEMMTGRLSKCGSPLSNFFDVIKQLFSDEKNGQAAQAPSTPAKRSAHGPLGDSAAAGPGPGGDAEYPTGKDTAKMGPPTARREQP

[4] = target: Receptor-interacting serine/threonine-protein kinase 2 (Homo sapiens) (UniProt O43353); experiment: RIPK2(h) Eurofins kinase panel; conditions: Compound concentration 1.0 uM
Sequence of Receptor-interacting serine/threonine-protein kinase 2 (Homo sapiens) (O43353 whole entry): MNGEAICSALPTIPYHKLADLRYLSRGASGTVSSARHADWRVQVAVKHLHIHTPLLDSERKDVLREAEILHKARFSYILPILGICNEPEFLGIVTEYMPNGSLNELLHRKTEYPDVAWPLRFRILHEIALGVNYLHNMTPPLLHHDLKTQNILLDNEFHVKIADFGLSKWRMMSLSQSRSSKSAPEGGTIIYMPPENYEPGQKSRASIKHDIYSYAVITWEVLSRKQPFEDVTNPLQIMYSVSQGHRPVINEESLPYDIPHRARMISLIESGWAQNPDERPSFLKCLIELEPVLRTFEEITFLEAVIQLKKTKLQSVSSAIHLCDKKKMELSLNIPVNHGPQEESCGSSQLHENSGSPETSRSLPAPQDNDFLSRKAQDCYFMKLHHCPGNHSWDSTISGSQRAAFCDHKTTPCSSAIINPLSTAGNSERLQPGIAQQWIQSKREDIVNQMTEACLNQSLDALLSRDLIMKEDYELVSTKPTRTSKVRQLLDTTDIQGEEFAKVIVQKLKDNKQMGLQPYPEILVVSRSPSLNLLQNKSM

[5] = target: PI3-kinase p110-alpha/p85-alpha (Homo sapiens) (UniProt P27986+P42336); experiment: PI3 Kinase(p110a/p85a)(h) Eurofins kinase panel; format: protein-complex assay; conditions: Compound concentration 1.0 uM
[6] = target: Dual specificity mitogen-activated protein kinase kinase 1 (Homo sapiens) (UniProt Q02750); experiment: MEK1(h) Eurofins kinase panel; conditions: Compound concentration 1.0 uM
Sequence of Dual specificity mitogen-activated protein kinase kinase 1 (Homo sapiens) (Q02750 whole entry): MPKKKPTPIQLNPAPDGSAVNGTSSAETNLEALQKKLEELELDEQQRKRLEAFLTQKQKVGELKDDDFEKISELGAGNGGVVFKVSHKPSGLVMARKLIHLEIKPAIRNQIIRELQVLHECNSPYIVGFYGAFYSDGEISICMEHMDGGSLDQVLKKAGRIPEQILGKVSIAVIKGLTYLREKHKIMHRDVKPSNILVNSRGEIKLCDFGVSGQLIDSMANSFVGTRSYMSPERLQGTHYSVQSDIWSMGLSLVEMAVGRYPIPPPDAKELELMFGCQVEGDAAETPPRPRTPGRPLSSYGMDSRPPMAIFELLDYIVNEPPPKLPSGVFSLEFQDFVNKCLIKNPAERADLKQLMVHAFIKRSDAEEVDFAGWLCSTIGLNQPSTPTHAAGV

[7] = target: Serine/threonine-protein kinase PAK 3 (Homo sapiens) (UniProt O75914); experiment: PAK3(h) Eurofins kinase panel; conditions: Compound concentration 1.0 uM
Sequence of Serine/threonine-protein kinase PAK 3 (Homo sapiens) (O75914 whole entry, looked up): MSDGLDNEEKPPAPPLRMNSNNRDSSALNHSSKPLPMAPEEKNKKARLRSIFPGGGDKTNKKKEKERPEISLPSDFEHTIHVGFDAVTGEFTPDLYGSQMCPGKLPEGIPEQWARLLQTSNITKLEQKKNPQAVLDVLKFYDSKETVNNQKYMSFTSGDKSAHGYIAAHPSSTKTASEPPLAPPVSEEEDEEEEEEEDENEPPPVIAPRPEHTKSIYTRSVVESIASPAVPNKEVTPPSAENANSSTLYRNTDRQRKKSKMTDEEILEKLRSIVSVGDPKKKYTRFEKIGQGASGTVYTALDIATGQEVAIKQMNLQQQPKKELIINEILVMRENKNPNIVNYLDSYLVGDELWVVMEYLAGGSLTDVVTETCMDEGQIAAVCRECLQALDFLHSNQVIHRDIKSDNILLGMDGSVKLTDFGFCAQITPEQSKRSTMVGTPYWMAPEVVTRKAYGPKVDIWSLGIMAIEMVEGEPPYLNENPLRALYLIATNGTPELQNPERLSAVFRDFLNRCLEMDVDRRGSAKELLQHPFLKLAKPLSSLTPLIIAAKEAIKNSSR

[8] = target: Tyrosine-protein kinase Lck (Homo sapiens) (UniProt P06239); experiment: Lck(h) activated Eurofins kinase panel; conditions: Compound concentration 1.0 uM
Sequence of Tyrosine-protein kinase Lck (Homo sapiens) (P06239 2-509 limits assumed): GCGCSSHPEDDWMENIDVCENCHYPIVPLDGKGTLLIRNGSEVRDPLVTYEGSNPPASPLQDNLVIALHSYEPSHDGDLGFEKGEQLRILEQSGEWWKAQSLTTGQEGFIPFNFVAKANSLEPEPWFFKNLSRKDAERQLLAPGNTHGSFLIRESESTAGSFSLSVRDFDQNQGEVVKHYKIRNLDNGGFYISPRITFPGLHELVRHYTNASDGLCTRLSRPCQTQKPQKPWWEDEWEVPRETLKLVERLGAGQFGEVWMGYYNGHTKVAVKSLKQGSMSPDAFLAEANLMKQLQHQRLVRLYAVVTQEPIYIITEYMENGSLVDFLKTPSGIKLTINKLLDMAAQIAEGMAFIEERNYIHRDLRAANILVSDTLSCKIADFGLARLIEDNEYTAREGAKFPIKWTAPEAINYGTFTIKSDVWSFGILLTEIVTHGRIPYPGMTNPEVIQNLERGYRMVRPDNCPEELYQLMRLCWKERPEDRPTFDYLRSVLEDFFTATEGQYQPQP

[9] = target: T3, Dual specificity mitogen-activated protein kinase kinase 6 (Homo sapiens) (UniProt P52564); experiment: MKK6(h) Eurofins kinase panel; conditions: Compound concentration 1.0 uM
T3 sequence (whole entry): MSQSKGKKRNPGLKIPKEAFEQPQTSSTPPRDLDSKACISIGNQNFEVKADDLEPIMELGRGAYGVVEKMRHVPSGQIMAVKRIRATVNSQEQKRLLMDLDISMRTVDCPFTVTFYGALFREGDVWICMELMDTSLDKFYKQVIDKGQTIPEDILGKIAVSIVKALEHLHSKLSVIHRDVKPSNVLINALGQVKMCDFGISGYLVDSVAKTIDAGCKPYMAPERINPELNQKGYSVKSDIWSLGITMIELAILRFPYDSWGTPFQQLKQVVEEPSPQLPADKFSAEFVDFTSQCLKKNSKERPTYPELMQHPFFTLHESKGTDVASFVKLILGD

[10] = target: Maternal embryonic leucine zipper kinase (Homo sapiens) (UniProt Q14680); experiment: MELK(h) Eurofins kinase panel; conditions: Compound concentration 1.0 uM
Sequence of Maternal embryonic leucine zipper kinase (Homo sapiens) (Q14680 whole entry, looked up): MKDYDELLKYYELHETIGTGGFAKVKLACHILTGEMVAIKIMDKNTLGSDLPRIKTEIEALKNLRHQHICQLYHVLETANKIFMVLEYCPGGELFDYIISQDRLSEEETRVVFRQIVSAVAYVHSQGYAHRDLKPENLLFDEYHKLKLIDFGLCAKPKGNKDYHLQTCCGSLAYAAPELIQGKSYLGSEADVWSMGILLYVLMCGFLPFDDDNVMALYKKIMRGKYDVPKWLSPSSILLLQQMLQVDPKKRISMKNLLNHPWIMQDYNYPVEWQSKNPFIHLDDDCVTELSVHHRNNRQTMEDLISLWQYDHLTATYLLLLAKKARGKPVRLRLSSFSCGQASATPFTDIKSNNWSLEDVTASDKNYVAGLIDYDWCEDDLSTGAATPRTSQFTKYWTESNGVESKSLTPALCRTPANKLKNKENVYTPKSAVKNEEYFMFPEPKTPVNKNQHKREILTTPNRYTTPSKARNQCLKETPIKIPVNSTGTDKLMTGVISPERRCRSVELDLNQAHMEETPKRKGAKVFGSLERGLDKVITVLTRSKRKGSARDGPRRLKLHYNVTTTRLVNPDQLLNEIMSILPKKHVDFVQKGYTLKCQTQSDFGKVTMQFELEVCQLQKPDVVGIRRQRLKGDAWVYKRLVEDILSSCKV

[11] = target: T4, Inhibitor of nuclear factor kappa-B kinase subunit epsilon (Homo sapiens) (UniProt Q14164); experiment: IKKepsilon(h) Eurofins kinase panel; conditions: Compound concentration 1.0 uM
T4 sequence (whole entry): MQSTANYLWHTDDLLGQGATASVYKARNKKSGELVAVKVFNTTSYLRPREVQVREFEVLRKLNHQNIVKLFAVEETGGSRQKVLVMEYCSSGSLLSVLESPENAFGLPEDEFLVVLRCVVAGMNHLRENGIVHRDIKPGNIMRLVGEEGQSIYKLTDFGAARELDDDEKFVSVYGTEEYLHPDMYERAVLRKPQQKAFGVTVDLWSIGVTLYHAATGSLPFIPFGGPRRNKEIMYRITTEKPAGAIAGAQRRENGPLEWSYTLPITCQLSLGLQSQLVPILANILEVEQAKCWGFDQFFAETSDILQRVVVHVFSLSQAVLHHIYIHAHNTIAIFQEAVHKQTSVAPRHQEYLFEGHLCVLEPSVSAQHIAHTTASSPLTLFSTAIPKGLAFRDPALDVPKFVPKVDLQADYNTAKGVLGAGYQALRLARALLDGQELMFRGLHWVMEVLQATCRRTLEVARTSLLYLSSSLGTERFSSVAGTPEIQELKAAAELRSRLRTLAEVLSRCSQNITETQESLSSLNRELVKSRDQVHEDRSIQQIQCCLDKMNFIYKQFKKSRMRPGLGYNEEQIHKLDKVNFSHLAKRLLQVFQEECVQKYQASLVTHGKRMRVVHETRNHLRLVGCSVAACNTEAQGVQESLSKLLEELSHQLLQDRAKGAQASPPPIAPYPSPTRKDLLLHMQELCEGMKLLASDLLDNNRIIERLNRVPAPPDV

[12] = target: 5'-AMP-activated protein kinase catalytic subunit alpha-1 (Homo sapiens, UniProt Q13131); conditions: Compound concentration 1.0 uM
Sequence of 5'-AMP-activated protein kinase catalytic subunit alpha-1 (Q13131 whole entry, looked up): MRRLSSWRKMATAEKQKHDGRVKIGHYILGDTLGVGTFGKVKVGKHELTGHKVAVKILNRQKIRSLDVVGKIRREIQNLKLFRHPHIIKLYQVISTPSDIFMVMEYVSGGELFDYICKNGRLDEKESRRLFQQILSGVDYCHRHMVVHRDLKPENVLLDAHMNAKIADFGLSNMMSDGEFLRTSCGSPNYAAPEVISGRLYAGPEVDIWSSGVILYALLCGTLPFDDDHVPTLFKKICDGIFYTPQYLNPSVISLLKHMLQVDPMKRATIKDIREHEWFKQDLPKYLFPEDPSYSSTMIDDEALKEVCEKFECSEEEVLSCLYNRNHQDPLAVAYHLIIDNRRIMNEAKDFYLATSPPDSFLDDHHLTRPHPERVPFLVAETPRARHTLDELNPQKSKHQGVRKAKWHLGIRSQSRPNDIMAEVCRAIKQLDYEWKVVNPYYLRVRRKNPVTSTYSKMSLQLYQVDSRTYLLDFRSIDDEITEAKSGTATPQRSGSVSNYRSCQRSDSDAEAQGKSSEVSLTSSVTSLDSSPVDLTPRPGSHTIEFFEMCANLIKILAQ

[13] = target: Macrophage-stimulating protein receptor (Homo sapiens) (UniProt Q04912); experiment: Ron(h) Eurofins kinase panel; conditions: Compound concentration 1.0 uM
Sequence of Macrophage-stimulating protein receptor (Homo sapiens) (Q04912 25-304 limits assumed): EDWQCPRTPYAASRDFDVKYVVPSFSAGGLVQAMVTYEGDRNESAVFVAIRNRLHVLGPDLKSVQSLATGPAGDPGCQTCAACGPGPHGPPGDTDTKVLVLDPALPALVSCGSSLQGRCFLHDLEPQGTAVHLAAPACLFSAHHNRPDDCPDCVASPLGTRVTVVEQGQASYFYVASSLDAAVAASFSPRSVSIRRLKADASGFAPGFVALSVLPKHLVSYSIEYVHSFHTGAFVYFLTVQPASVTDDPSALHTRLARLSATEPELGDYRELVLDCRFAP
Sequence of Macrophage-stimulating protein receptor (Homo sapiens) (Q04912 310-1400 limits assumed): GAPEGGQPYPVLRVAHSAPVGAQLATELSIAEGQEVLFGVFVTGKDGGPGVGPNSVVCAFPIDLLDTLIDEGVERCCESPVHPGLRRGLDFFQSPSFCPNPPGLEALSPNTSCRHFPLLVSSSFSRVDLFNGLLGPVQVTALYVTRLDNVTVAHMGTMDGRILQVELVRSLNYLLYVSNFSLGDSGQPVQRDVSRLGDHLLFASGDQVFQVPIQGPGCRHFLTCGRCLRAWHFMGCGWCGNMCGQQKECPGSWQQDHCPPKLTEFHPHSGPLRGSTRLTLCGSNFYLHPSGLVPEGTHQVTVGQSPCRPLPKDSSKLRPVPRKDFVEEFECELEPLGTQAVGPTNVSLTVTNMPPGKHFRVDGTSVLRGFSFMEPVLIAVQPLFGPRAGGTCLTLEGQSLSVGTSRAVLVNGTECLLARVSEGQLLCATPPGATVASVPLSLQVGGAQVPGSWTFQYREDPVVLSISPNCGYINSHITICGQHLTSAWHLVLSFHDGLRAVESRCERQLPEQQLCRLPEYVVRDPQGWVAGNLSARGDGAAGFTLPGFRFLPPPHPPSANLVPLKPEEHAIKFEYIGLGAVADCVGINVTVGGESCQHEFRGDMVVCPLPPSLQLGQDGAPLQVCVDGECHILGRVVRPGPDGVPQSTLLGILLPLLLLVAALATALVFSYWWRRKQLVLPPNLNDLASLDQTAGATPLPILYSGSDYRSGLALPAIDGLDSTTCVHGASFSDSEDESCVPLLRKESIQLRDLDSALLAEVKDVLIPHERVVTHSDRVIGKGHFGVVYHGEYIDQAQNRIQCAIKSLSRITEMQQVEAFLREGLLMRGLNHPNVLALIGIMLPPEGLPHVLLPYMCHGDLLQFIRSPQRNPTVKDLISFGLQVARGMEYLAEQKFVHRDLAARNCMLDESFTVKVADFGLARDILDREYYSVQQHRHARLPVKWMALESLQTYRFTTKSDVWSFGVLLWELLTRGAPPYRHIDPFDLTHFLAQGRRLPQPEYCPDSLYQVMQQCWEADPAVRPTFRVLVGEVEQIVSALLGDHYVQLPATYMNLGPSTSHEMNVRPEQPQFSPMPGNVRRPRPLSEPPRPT

SMILES	inhibition [1] [%]	% residual kinase activity [2] [%]	Cell Proliferation IC50 (JJN-3) [µM]	% residual kinase activity [3] [%]	% residual kinase activity [4] [%]	% residual kinase activity [5] [%]	% residual kinase activity [6] [%]	% residual kinase activity [7] [%]	% residual kinase activity [8] [%]	% residual kinase activity [9] [%]	% residual kinase activity [10] [%]	% residual kinase activity [11] [%]	% residual kinase activity [12] [%]	% residual kinase activity [13] [%]
CC1=C(C#N)C(c2ccc3c(c2)c(NC(=O)c2ccccc2C)nn3C)C(C#N)=C(C)N1 [BAY-974]	-1.23													
CCc1ccccc1C(=O)Nc1n[nH]c2c(C)c(F)c(C3C(C#N)=C(C)N(C)C(C)=C3C#N)cc12 [BAY-3827]		73	>20	34	115	99	90	100	108	94	39	108	1	102
